From patent publication US9169254B2, “Spiroimidazolone derivative” (Chugai Seiyaku Kabushiki Kaisha, priority 2009, dated 2015)

These compounds were tested against T1, human PTH1 receptor (Homo sapiens, UniProt Q03431) (assay: In vitro cAMP signal activity in HKRK-B7 cells (LLC-PK1 cells overexpressing the human PTH1 receptor)). Details: HKRK-B7 cells; compound at 1×10^−3 M; cAMP produced as percentage of that produced by hPTH(1-34) at 100 nM.
T1 sequence (Q03431 27-593): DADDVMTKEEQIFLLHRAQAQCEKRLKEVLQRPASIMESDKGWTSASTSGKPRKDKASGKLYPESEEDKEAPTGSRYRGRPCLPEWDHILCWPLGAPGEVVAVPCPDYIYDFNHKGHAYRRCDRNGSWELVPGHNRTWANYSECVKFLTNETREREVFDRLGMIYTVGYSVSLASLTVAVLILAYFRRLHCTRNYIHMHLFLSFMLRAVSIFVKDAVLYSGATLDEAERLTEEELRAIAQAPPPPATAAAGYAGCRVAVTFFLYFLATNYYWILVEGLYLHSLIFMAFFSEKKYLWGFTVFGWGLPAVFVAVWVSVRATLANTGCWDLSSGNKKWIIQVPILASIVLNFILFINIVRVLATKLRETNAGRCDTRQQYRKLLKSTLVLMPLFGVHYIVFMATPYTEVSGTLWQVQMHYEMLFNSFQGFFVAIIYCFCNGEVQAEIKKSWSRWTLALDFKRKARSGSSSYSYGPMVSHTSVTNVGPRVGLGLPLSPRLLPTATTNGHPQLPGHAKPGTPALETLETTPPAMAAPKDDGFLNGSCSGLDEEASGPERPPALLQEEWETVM
Format: cell-based

cAMP production activity (%) | SMILES
14 | CCCS(=O)(=O)CCCCCC1=NC2(CCN(S(=O)(=O)CCc3c(C)cc(N(C)C(N)=O)cc3C)CC2)C(=O)N1 [Compound 1356, 1-[3,5-dimethyl-4-(2-{4-oxo-2-[5-(propane-1-sulfonyl)-pentyl]-1,3,8-triaza-spiro[4.5]dec-1-ene-8-sulfonyl}-ethyl)-phenyl]-1-methyl-urea]
13 | Cc1cc(N(C)C(N)=O)cc(C)c1CCS(=O)(=O)N1CCC2(CC1)N=C(CCCCCCCS(C)(=O)=O)NC2=O [Compound 1357, 1-(4-{2-[2-(7-methanesulfonyl-heptyl)-4-oxo-1,3,8-triaza-spiro[4.5]dec-1-ene-8-sulfonyl]-ethyl}-3,5-dimethyl-phenyl)-1-methyl-urea]
153 | Cc1cc(N(C)C(N)=O)cc(C)c1CCS(=O)(=O)N1CCC2(CC1)N=C(c1ccc(CCCC(F)(F)F)cc1)NC2=O [Compound 1358, 1-[3,5-dimethyl-4-(2-{4-oxo-2-[4-(4,4,4-trifluoro-butyl)-phenyl]-1,3,8-triaza-spiro[4.5]dec-1-ene-8-sulfonyl}-ethyl)-phenyl]-1-methyl-urea]
165 | Cc1cc(N(C)C(N)=O)cc(C)c1CCS(=O)(=O)N1CCC2(CC1)N=C(c1cccc(CCCC(F)(F)F)c1)NC2=O [Compound 1359, 1-[3,5-dimethyl-4-(2-{4-oxo-2-[3-(4,4,4-trifluoro-butyl)-phenyl]-1,3,8-triaza-spiro[4.5]dec-1-ene-8-sulfonyl}-ethyl)-phenyl]-1-methyl-urea]
121 | Cc1cc(N(C)C(N)=O)cc(C)c1CCS(=O)(=O)N1CCC2(CC1)N=C(CCCCCCCCCCCNC(=O)OC(C)(C)C)NC2=O [Compound 1360, [11-(8-{2-[2,6-dimethyl-4-(1-methyl-ureido)-phenyl]-ethanesulfonyl}-4-oxo-1,3,8-triaza-spiro[4.5]dec-1-en-2-yl)-undecyl]-carbamic acid tert-butyl ester]
104 | Cc1cc(N(C)C(N)=O)cc(C)c1CCS(=O)(=O)N1CCC2(CC1)N=C(CCCCCCCCCCCO)NC2=O [Compound 1361, 1-(4-{2-[2-(11-hydroxy-undecyl)-4-oxo-1,3,8-triaza-spiro[4.5]dec-1-ene-8-sulfonyl]-ethyl}-3,5-dimethyl-phenyl)-1-methyl-urea]
48 | Cc1cc(N(C)C(N)=O)cc(C)c1CCS(=O)(=O)N1CCC2(CC1)N=C(CCCCCCCCCC(=O)O)NC2=O [Compound 1362, 10-(8-{2-[2,6-dimethyl-4-(1-methyl-ureido)-phenyl]-ethanesulfonyl}-4-oxo-1,3,8-triaza-spiro[4.5]dec-1-en-2-yl)-decanoic acid]
80 | Cc1cc(N(C)C(N)=O)cc(C)c1CCS(=O)(=O)N1CCC2(CC1)N=C(CCCCCCCCCC(N)=O)NC2=O [Compound 1363, 10-(8-{2-[2,6-dimethyl-4-(1-methyl-ureido)-phenyl]-ethanesulfonyl}-4-oxo-1,3,8-triaza-spiro[4.5]dec-1-en-2-yl)-decanoic acid amide]
84 | [2H]C([2H])([2H])C1([2H])CCC(C2=NC3(CCN(S(=O)(=O)CCc4c(C)cc(N(C)C(N)=O)cc4C)CC3)C(=O)N2)CC1 (stereo not drawn) [Compound 1364, 1-(3,5-dimethyl-4-{2-[2-(4-[1,1,1-^2H3]-methyl-[4-^2H1]cyclohexyl)-4-oxo-1,3,8-triaza-spiro[4.5]dec-1-ene-8-sulfonyl]-ethyl}-phenyl)-1-methyl-urea]
108 | Cc1cc(N(C)C(N)=O)cc(C)c1/C=C/S(=O)(=O)N1CCC2(CC1)N=C(CCCCCCCCCc1ccccc1)NC2=O [Compound 1365, 1-(3,5-Dimethyl-4-{(E)-2-[4-oxo-2-(9-phenyl-nonyl)-1,3,8-triaza-spiro[4.5]dec-1-ene-8-sulfonyl]-vinyl}-phenyl)-1-methyl-urea]
103 | Cc1cc(N(C)C(N)=O)cc(C)c1CCS(=O)(=O)N1CCC2(CC1)N=C(CCCCCCCCCCCN)NC2=O [Compound 1366, 1-(4-{2-[2-(11-Amino-undecyl)-4-oxo-1,3,8-triaza-spiro[4.5]dec-1-ene-8-sulfonyl]-ethyl}-3,5-dimethyl-phenyl)-1-methyl-urea]
58 | CCOc1c(N(C)c2cc(C)c(CCS(=O)(=O)N3CCC4(CC3)N=C([C@H]3CC[C@H](C)CC3)NC4=O)c(C)c2)c(=O)c1=O [Compound 1367, 3-[(3,5-Dimethyl-4-{2-[2-(4-methyl-cyclohexyl)-4-oxo-1,3,8-triaza-spiro[4.5]dec-1-ene-8-sulfonyl]-ethyl}-phenyl)-methyl-amino]-4-ethoxy-cyclobut-3-ene-1,2-dione]
83 | Cc1cc(N(C)c2c(N)c(=O)c2=O)cc(C)c1CCS(=O)(=O)N1CCC2(CC1)N=C([C@H]1CC[C@H](C)CC1)NC2=O [Compound 1368, 3-Amino-4-[(3,5-dimethyl-4-{2-[2-(4-methyl-cyclohexyl)-4-oxo-1,3,8-triaza-spiro[4.5]dec-1-ene-8-sulfonyl]-ethyl}-phenyl)-methyl-amino]-cyclobut-3-ene-1,2-dione]
30 | Cc1cc(N(C)c2c(N(C)C)c(=O)c2=O)cc(C)c1CCS(=O)(=O)N1CCC2(CC1)N=C([C@H]1CC[C@H](C)CC1)NC2=O [Compound 1369, 3-Dimethylamino-4-[(3,5-dimethyl-4-{2-[2-(4-methyl-cyclohexyl)-4-oxo-1,3,8-triaza-spiro[4.5]dec-1-ene-8-sulfonyl]-ethyl}-phenyl)-methyl-amino]-cyclobut-3-ene-1,2-dione]
84 | Cc1cc(N(C)C(N)=O)cc(C)c1CCS(=O)(=O)N1CCC2(CC1)N=C(C1CCC(C)CC1)N/C2=N/O (stereo not drawn) [Compound 1371, 1-(4-{2-[4-[(E)-Hydroxyimino]-2-(4-methyl-cyclohexyl)-1,3,8-triaza-spiro[4.5]dec-1-ene-8-sulfonyl]-ethyl}-3,5-dimethyl-phenyl)-1-methyl-urea]
36 | Cc1ccccc1CNS(=O)(=O)N1CCC2(CC1)N=C(C1CCC(C)CC1)NC2=O (stereo not drawn) [Compound 1372, 2-(4-Methyl-cyclohexyl)-4-oxo-1,3,8-triaza-spiro[4.5]dec-1-ene-8-sulfonic acid 2-methyl-benzylamide]
33 | O=C1NC(C2CCCCC2)=NC12CCN(S(=O)(=O)CC(O)c1cccc3c1ccn3C[C@H](O)CO)CC2 (stereo partly drawn) [Compound 1374, 2-Cyclohexyl-8-{2-[1-((S)-2,3-dihydroxy-propyl)-1H-indol-4-yl]-2-hydroxy-ethanesulfonyl}-1,3,8-triaza-spiro[4.5]dec-1-en-4-one]
23 | Cc1ccccc1C(=O)CS(=O)(=O)N1CCC2(CC1)N=C(C1CCCCC1)NC2=O [Compound 1375, 2-Cyclohexyl-8-(2-oxo-2-o-tolyl-ethanesulfonyl)-1,3,8-triaza-spiro[4.5]dec-1-en-4-one]
42 | Cc1ccccc1C#CS(=O)(=O)N1CCC2(CC1)N=C(C1CCCCC1)NC2=O [Compound 1376, 2-Cyclohexyl-8-(2-o-tolyl-ethynesulfonyl)-1,3,8-triaza-spiro[4.5]dec-1-en-4-one]
35 | O=C1NC(C2CCCCC2)=NC12CCN(S(=O)(=O)C#Cc1cccc3[nH]ccc13)CC2 [Compound 1377, 2-Cyclohexyl-8-[2-(1H-indol-4-yl)-ethynesulfonyl]-1,3,8-triaza-spiro[4.5]dec-1-en-4-one]
116 | Cc1cc(C(=O)N(C)C)cc(C)c1CCS(=O)(=O)N1CCC2(CC1)N=C(C1CCC(CCC(F)(F)F)CC1)NC2=O (stereo not drawn) [Compound 1378, 3,5,N,N-Tetramethyl-4-(2-{4-oxo-2-[4-(3,3,3-trifluoro-propyl)-cyclohexyl]-1,3,8-triaza-spiro[4.5]dec-1-ene-8-sulfonyl}-ethyl)-benzamide]
86 | Cc1cc(C(=O)N(C)C)cc(C)c1CCS(=O)(=O)N1CCC2(CC1)N=C(C1CCC(C)CC1)NC2=O (stereo not drawn) [Compound 1379, 3,5,N,N-tetramethyl-4-{2-[2-(4-methyl-cyclohexyl)-4-oxo-1,3,8-triaza-spiro[4.5]dec-1-ene-8-sulfonyl]-ethyl}-benzamide]
109 | Cc1cc(C(=O)N2CCC(C)(O)CC2)cc(C)c1CCS(=O)(=O)N1CCC2(CC1)N=C(C1CCC(CCC(F)(F)F)CC1)NC2=O (stereo not drawn) [Compound 1380, 8-{2-[4-(4-hydroxy-4-methyl-piperidine-1-carbonyl)-2,6-dimethyl-phenyl]-ethanesulfonyl}-2-[4-(3,3,3-trifluoro-propyl)-cyclohexyl]-1,3,8-triaza-spiro[4.5]dec-1-en-4-one]

Same assay, conditions: HKRK-B7 cells; compound at 1×10^−3 M; cAMP produced as percentage of that produced by hPTH(1-34) at 100 nM; 0.1 µM

cAMP production activity (%) | SMILES
64 | C#C[C@H]1CC[C@@H](C2=NC3(CCN(S(=O)(=O)CCc4ccc(NC(C)=O)cc4C)CC3)C(=O)N2)CC1 [Compound 1370, N-(4-{2-[2-(4-Ethynyl-cyclohexyl)-4-oxo-1,3,8-triaza-spiro[4.5]dec-1-ene-8-sulfonyl]-ethyl}-3-methyl-phenyl)-acetamide]
